“And” between values parts separate entries of the source, which are not always exact repeats. Equal entries are not always repeated.
System: 233499-124-R-J3-PDC complex spheroid viability
Assay: Anticancer human tumor 233499-124-R-J3-PDC patient-derived colon adenocarcinoma cell line growth inhibition [CLK]
Conditions: for viability, T/C: stronger effect = lower value
Outline: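 Multi-cell-type spheroids combined patient-derived tumor cells with HUVEC endothelial cells and human mesenchymal stem cells. Paired agents were dosed in half-log steps down from about clinical Cmax, or from 10 microM where Cmax was unknown.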
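Also: spheroids exposed to the drug combinations for seven days.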
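For viability, T/C in this document: percent viability relative to DMSO vehicle control wells taken as 100%.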

O=c1[nH]cc(F)c(=O)[nH]1 + CNC(=O)c1ccc(Nc2nc(OC3CCCC3)c3c(-c4ccc5nc(C)oc5c4)c[nH]c3n2)c(OC)c1
IC50 (curve of first compound, second compound 0.0316 µM): 316 nM
IC50 (curve of first compound, second compound 0.1 µM): 199 nM
IC50 (curve of first compound, second compound 0.316 µM): 166 nM
IC50 (curve of first compound, second compound 1 µM): 166 nM
IC50 (curve of first compound, second compound 3.16 µM): 150 nM
IC50 (curve of first compound, second compound 10 µM): 195 nM
viability, T/C (second compound 0.0316 µM, first compound 0.0316 µM): 91.5%
viability, T/C (second compound 0.0316 µM, first compound 0.1 µM): 95.7%
viability, T/C (second compound 0.0316 µM, first compound 0.316 µM): 49.8%
viability, T/C (second compound 0.0316 µM, first compound 1 µM): 28.5%
viability, T/C (second compound 0.0316 µM, first compound 3.16 µM): 20.1%
viability, T/C (second compound 0.0316 µM, first compound 10 µM): 19.1%
viability, T/C (second compound 0.1 µM, first compound 0.0316 µM): 73%
viability, T/C (second compound 0.1 µM, first compound 0.1 µM): 72.4%
viability, T/C (second compound 0.1 µM, first compound 0.316 µM): 35.2%
viability, T/C (second compound 0.1 µM, first compound 1 µM): 21.4%
viability, T/C (second compound 0.1 µM, first compound 3.16 µM): 15.1%
viability, T/C (second compound 0.1 µM, first compound 10 µM): 20.4%
viability, T/C (second compound 0.316 µM, first compound 0.0316 µM): 81%
viability, T/C (second compound 0.316 µM, first compound 0.1 µM): 60.5%
viability, T/C (second compound 0.316 µM, first compound 0.316 µM): 36.8%
viability, T/C (second compound 0.316 µM, first compound 1 µM): 20.7%
viability, T/C (second compound 0.316 µM, first compound 3.16 µM): 14.9%
viability, T/C (second compound 0.316 µM, first compound 10 µM): 16.5%
viability, T/C (second compound 1 µM, first compound 0.0316 µM): 70.6%
viability, T/C (second compound 1 µM, first compound 0.1 µM): 68.7%
viability, T/C (second compound 1 µM, first compound 0.316 µM): 26.2%
viability, T/C (second compound 1 µM, first compound 1 µM): 11.4%
viability, T/C (second compound 1 µM, first compound 3.16 µM): 7.78%
viability, T/C (second compound 1 µM, first compound 10 µM): 9.54%
viability, T/C (second compound 3.16 µM, first compound 0.0316 µM): 70.8%
viability, T/C (second compound 3.16 µM, first compound 0.1 µM): 63.1%
viability, T/C (second compound 3.16 µM, first compound 0.316 µM): 26.9%
viability, T/C (second compound 3.16 µM, first compound 1 µM): 15.5%
viability, T/C (second compound 3.16 µM, first compound 3.16 µM): 7.07%
viability, T/C (second compound 3.16 µM, first compound 10 µM): 6.87%
viability, T/C (second compound 10 µM, first compound 0.0316 µM): 69.6%
viability, T/C (second compound 10 µM, first compound 0.1 µM): 75.3%
viability, T/C (second compound 10 µM, first compound 0.316 µM): 33.6%
viability, T/C (second compound 10 µM, first compound 1 µM): 16%
viability, T/C (second compound 10 µM, first compound 3.16 µM): 7.38%
viability, T/C (second compound 10 µM, first compound 10 µM): 8.24%

CC1(C)CCC(CN2CCN(c3ccc(C(=O)NS(=O)(=O)c4ccc(NCC5CCOCC5)c([N+](=O)[O-])c4)c(Oc4cnc5[nH]ccc5c4)c3)CC2)=C(c2ccc(Cl)cc2)C1
viability, T/C (compound 0.0316 µM): 99.6% and 96.4%
viability, T/C (compound 0.1 µM): 98.9% and 93.4%
viability, T/C (compound 0.316 µM): 99.4% and 96.6%
viability, T/C (compound 1 µM): 95.5% and 98.7%
viability, T/C (compound 3.16 µM): 111% and 105%
viability, T/C (compound 10 µM): 12.8% and 25.5%
IC50 (curve of compound): 6150 nM and 6780 nM

— PubChem BioAssay AID2060613 (Molecular Pharmacology Branch, DTP, NCI, 2025)
